Assay [1] concerns TEL-BMX transformed Ba/F3 cells. Briefly: cells. Particulars: Mus musculus, BaF3, read-out: GI50, TEL-BMX.
The next assay has as its target PIK4CB (Homo sapiens (Human), UniProt Q9UBF8). Put plainly: Kinase panel at 1 uM (Table 9). The class given is binding. Conditions: read-out: % inhibition at 1 uM, PIK4CB.
In a further assay the test system is VACP cells. Briefly: cells. Conditions: read-out: GI50, VACP.
The test system of the next assay is MWCL-1 cells. Put plainly: Cell proliferation analysis for WM and lymphoma cell lines (CellTiter-Glo). Conditions: 72 hours. The assay is classed as cell-based. (Cellular ATP, detected with luciferase, serves as a proxy for viable cell number.)
For a further assay, the target named is YSK4 (Homo sapiens (Human), UniProt Q56UN5). Briefly: Kinase panel at 1 uM (Table 9). The class given is binding. Conditions: read-out: % inhibition at 1 uM, YSK4.
For a further assay, the target named is MKNK2 (Homo sapiens (Human), UniProt Q9HBH9). Briefly: Kinase panel at 1 uM (Table 9). The class given is binding. Particulars: read-out: % inhibition at 1 uM, MKNK2.
The subject of assay [2] is TEL-BLK transformed Ba/F3 cells. Briefly: cells. Conditions: Mus musculus, BaF3, read-out: GI50, TEL-BLK.
The target in the next assay is wild-type (WT) BMX (Homo sapiens (Human), UniProt P51813). Briefly: IP kinase assay, BMX autophosphorylation. The class given is biochemical. Particulars: FIG. 15. The text has this:
(§1) FIG. 15 confirms that the potency of the BMX inhibitors is due to covalent binding to cysteine 496.

The target in another assay is BMX (C496S) (Homo sapiens (Human), UniProt P51813, C496S). Briefly: IP kinase assay, BMX autophosphorylation. The class given is biochemical. Conditions: FIG. 15A.
Text: as §1

The target of the next assay is DYRK2 (Homo sapiens (Human), UniProt Q92630). Put plainly: Kinase panel at 1 uM (Table 9). The class given is binding. Particulars: read-out: % inhibition at 1 uM, DYRK2.
The test system of assay [3] is RV-1 cells expressing wild-type BMX or C496S mutant. Particulars: FIG. 16.
The next assay concerns the target IRAK3 (Homo sapiens (Human), UniProt Q9Y616). Put plainly: Kinase panel at 1 uM (Table 9). The assay is classed as binding. Particulars: read-out: % inhibition at 1 uM, IRAK3.
In a further assay the target is JNK1 (Homo sapiens (Human), UniProt P45983). Put plainly: Kinase panel at 1 uM (Table 9). Conditions: read-out: % inhibition at 1 uM, JNK1. The assay is classed as binding.
For the next assay, the target named is BMX (Homo sapiens (Human), UniProt P51813). Put plainly: BMX autophosphorylation in RV-1 cells. The class given is cell-based.
A further assay has as its system FAK pY576/577. Briefly: FAK pYpY phosphorylation blot in RV1 cells cotransfected with BMX and FAK. The class given is cell-based. Particulars: FIG. 17.
For a further assay, the target named is JNK3 (Homo sapiens (Human), UniProt P53779). Put plainly: Kinase panel at 1 uM (Table 9). The assay is classed as binding. Particulars: read-out: % inhibition at 1 uM, JNK3.
For another assay, the target named is CLK2 (Homo sapiens (Human), UniProt P49760). Briefly: DiscoverX binding assay. Conditions: read-out: % inhibition at 1 uM, CLK2.
The test system of another assay is RV1 cells. Put plainly: Prostate cancer cell apoptosis, cleaved caspase 3. The assay is classed as cell-based. The text has this: Caspase-3 positive cells were counted and normalized to total cell number (N=5).
Another assay deals with PIP5K2C (Homo sapiens (Human), UniProt Q8TBX8). Briefly: Kinase panel at 1 uM (Table 9). The class given is binding. Conditions: read-out: % inhibition at 1 uM, PIP5K2C.
In a further assay the test system is DU-145 cells. Put plainly: cells. Conditions: Homo sapiens, DU-145, read-out: GI50, DU-145.

Text for CLK2: (§2) Screening hits are identified by measuring the amount of protein captured in test versus control samples by using a quantitative, precise, and ultra-sensitive qPCR method that detects the associated DNA label.
Method for DU-145 cells: (§3) Data were normalized to control group (DMSO) and represented by the mean of at least two independent measurement with standard error <20%. GI50 were calculated using Prism 5.0 (GraphPad Software, San Diego, Calif.).
Text for DYRK2: as §2
Text for IRAK3: as §2
Text for JNK1: as §2
Text for JNK3: as §2
Text for MKNK2: as §2
Method for MWCL-1 cells: Various cell lines were used including Waldenström's macroglobulinemia (WM) cell lines (BCWM.1, MWCL-1, RPCI-WM1) and B-cell lymphoma cell lines (OCI-Ly3, Ramos, OCI-Ly19). Cells were seeded into 384 well plates with the EL406 Combination Washer Dispenser (BioTek Instruments, Inc.) and inhibitor compounds were injected into the cells culture media with the JANUS Automated Workstation (PerkinElmer Inc.).
Text for PIK4CB: as §2
Text for PIP5K2C: as §2
Method for VACP cells: as §3
Text for YSK4: as §2

For `C=CC(=O)Nc1cc(-n2c(=O)ccc3cnc4ccc(-c5ccc(NS(C)(=O)=O)cc5)cc4c32)ccc1C` [I-14], the GI50 (usually the concentration giving 50% growth inhibition) amounted to 25 nM in assay [1], 2460 nM with VACP cells, 3640 nM in assay [2] and 4380 nM with DU-145 cells. Also, the inhibition (usually the relative decrease from the control value, in per cent) at 1 µM at PIK4CB is 79%; on YSK4, 100%; on MKNK2 it was 100%; at DYRK2, 100%; at IRAK3, 73%; on JNK1, 93%. Moreover, the inhibition at 1 µM on JNK3 was 100%; at CLK2, 100%; at PIP5K2C, 5.6%. Besides, in the assay on MWCL-1 cells, the response was half-maximal at 1390 nM (EC50). In addition, the “concentration inhibiting autophosphorylation of wild-type BMX” value on wild-type (WT) BMX lay in the range of 10 to 100 nM. In addition, the “concentration inhibiting autophosphorylation of BMX (C496S)” value on BMX (C496S) is > 10,000 nM. The “growth inhibition of cells expressing wild-type BMX versus C496S mutant” value in assay [3] is given as “more potently inhibits growth of cells expressing the wild-type BMX than the C496S mutant”. Further, the “concentration sufficient to inhibit BMX autophosphorylation in RV-1 cells” value on BMX was at most 1 µM. In the assay on FAK pY576/577, the “BMX mediated phosphorylation of pYpY site on FAK” value is reported as “inhibits BMX mediated phosphorylation of pYpY site on FAK”. Moreover, the “cell numbers and apoptosis by Caspase 3 staining” value with RV1 cells (5 pM concentration (so in the source)) is “reduced cell numbers and induced apoptosis”. The “concentration causing apoptosis based on increased cleaved caspase 3” value in the assay with RV1 cells (FIG. 18C) fell in the range of 10 to 20 µM.

For the origin of these results see US10000483B2, “Bone marrow on X chromosome kinase (BMX) inhibitors and uses thereof” (Dana-Farber Cancer Institute, Inc., priority 2012, dated 2018).
